Source: ChEMBL document CHEMBL6182874, “Discovery of phenylisoxazolidine analogs targeting receptor interacting protein kinase 1 with anti-inflammatory activity” (Eur J Med Chem, 2025)
Activity calls are given as the source filed them. The rule behind the calls is not given here.

How the values were obtained:
L929 [1] = assay: Inhibition of […] in TNF-alpha/z-VAD-fmk-induced mouse L929 cells assessed as increase in fluorescence intensity in lysosomes at 10 to 250 nM incubated for 4 hrs by Lyso-Tracker dye based analysis; format: functional, cell-based; conditions: dose 10-250 nM
L929 [2] = assay: Inhibition of ROS production in TNF-alpha/z-VAD-fmk-induced mouse L929 cells incubated for 4 hrs by DCFH-DA staining based analysis; format: functional, cell-based; conditions: dose 10-250 nM
HT-29 = assay: Inhibition of apoptosis in TS-induced human HT-29 cells up to 5 uM preincubated with compound for 1 hr followed by TNF-alpha/Smac mimic for 24 hrs by CCK8 assay; format: functional, cell-based; conditions: time 25.0 hrs
Mus musculus [3] = assay: Protection against TNFalpha-induced SIRS C57BL/6J mouse assessed as histological change in heart at 1 to 10 mg/kg, ip pretreated with compound for 1 hr followed by TNF-alpha administration measured up to 72 hrs by H and E staining based analysis; format: functional, organism-based; conditions: dose 1-10 mg/kg, time 73.0 hrs
Mus musculus [4] = assay: Protection against TNFalpha-induced SIRS C57BL/6J mouse assessed as histological change in kidney at 1 to 10 mg/kg, ip pretreated with compound for 1 hr followed by TNF-alpha administration measured up to 72 hrs by H and E staining based analysis; format: functional, organism-based; conditions: dose 1-10 mg/kg, time 73.0 hrs
Mus musculus [5] = assay: Protection against TNFalpha-induced SIRS C57BL/6J mouse assessed as histological change in liver at 1 to 10 mg/kg, ip pretreated with compound for 1 hr followed by TNF-alpha administration measured up to 72 hrs by H and E staining based analysis; format: functional, organism-based; conditions: dose 1-10 mg/kg, time 73.0 hrs
Mus musculus [6] = assay: Protection against TNFalpha-induced SIRS C57BL/6J mouse model assessed as reduction in body temperature loss at 5 mg/kg, ip pretreated with compound for 1 hr followed by TNF-alpha administration measured up to 72 hrs by electric thermometer analysis; format: functional, organism-based; conditions: time 73.0 hrs
L929 [7] = assay: Anti-necroptosis activity against TZ-induced mouse L929 cells assessed as reduction in PI stained-positive cells pretreated with compound for 1 hr followed by TNF-alpha/z-VAD-fmk treatment by Hoechst 33342/PI double staining based analysis; format: functional, cell-based; conditions: dose 10-250 nM
[8] = MRT (0 to infinity) in male Sprague-Dawley rat at 1 mg/kg, iv measured up to 1440 mins by LC-MS analysis; format: ADME, organism-based; conditions: in vivo
[9] = molecular target: Receptor-interacting serine/threonine-protein kinase 3 (Homo sapiens) (UniProt Q9Y572); assay: Inhibition of RIPK3 (unknown origin)
Chain of Receptor-interacting serine/threonine-protein kinase 3 (Homo sapiens) (Q9Y572 whole entry, looked up): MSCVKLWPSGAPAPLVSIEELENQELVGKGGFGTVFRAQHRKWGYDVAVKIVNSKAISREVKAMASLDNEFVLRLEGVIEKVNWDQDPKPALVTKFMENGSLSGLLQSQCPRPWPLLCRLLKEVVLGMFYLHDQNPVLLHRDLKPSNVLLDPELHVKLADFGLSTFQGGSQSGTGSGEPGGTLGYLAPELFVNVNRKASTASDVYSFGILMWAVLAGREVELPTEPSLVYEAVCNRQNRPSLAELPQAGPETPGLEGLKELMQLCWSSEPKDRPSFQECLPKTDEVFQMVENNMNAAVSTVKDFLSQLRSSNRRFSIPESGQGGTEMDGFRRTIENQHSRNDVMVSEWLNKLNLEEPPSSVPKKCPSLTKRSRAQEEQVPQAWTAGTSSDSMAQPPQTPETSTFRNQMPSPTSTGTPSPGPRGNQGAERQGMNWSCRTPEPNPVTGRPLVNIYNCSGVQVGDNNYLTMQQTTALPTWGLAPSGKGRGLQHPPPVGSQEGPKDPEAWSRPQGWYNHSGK

[10] = Clearance in male Sprague-Dawley rat at 1 mg/kg, iv measured up to 1440 mins by LC-MS analysis; format: ADME, organism-based; conditions: in vivo

What does the source list for `O=S(=O)(Cc1ccccc1)N1OCC[C@H]1c1ccccc1`?
inhibition (L929 [1]): Active; inhibition (L929 [2]): Dose-dependent-effect; inhibition (HT-29): inactive; Activity (Mus musculus [3]): Active; Activity (Mus musculus [4]): Active; Activity (Mus musculus [5]): Active; Activity (Mus musculus [6]): Active; Activity (L929 [7]): Dose-dependent-effect; MRT inf [8]: 2.02 h; inhibition [9]: inactive; clearance [10]: 146 mL/min/kg
